Assays:
Format in all cases: in vivo
[1] = system: male Swiss albino mice (CD-1); assay: Subcutaneous pentylenetetrazole seizure test (scPTZ)
Summary of the method: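 Compounds given i.p. in 1% aqueous Tween 30 min before s.c. PTZ at 100 mg/kg. Mice observed 30 min for clonic seizures (whole-body clonus ≥3 s with loss of righting reflex); absence counted as protection. ED50 from 3-4 groups of 6 mice; screening in groups of 4.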

[2] = system: male white Swiss mice (CD-1); assay: Oxaliplatin-induced neuropathic pain, von Frey test; conditions: for pain threshold, von Frey test: 7 days after OXPT, after OXPT 1.89±0.04 g; for pain threshold as % of the initial value, von Frey test: initial value 3.36±0.10 g
Method: The tests were carried out using male white Swiss mice (CD-1) weighing 18-25 g. All procedures were carried out in accordance with Polish and international guidelines on ethics of animal testing, after obtaining appropriate institutional approval. The study group consisted of 8-10 animals. The tested and reference substances were administered intraperitoneally 30 minutes before given test as suspension in 1% aqueous solution of Tween. All tests/models were carried out based on the procedures described in the specialist literature: the formalin test (Beirith, A.; Santos, A. R.; Calixto, J. B.; Rodrigues, A. L.; Creczynski-Pasa, T. B. Eur. J. Pharmacol. 1998, 345, 233-245), the model of capsaicin-induced pain (Mogilski, S.; Kubacka, M.; Redzicka, A.; Kazek, G.; Dudek, M.; Malinka, W.; Filipek, B. Pharmacol. Biochem. Behav. 2015, 133, 99-110), the model of oxaliplatin-induced neuropathic pain—von Frey test (Sałat, K.; Cios, A.; Wyska, E.; Satat, R.; Mogilski, S.; Filipek, B.; Wigȩkowski, K.; Malawska, B. Pharmacol. Biochem. Behav. 2014, 122, 173-181).
Oxaliplatin (OXPT) was dissolved in a 5% glucose solution, followed by intraperitoneal administration to mice. A single dose of 10 mg/kg was used. Tactile and thermal (sensation of low temperature) allodynia associated with oxaliplatin-induced neuropathy are characterized by two phases. The early phase is acute and develops soon after administration of the OXPT, while the symptoms of the later (chronic) phase (associated with neurons damage), develops after a few days. Behavioral tests in mice with OXPT-induced neuropathy were carried out 7 days after its administration, i.e. in the late phase of neuropathy.
The influence of compounds tested on tactile allodynia was determined in the von Frey test. The animals were placed individually in cages with a reticulated bottom, 60 minutes before the beginning of the experiment, in order to adapt to the new environment. An electronic Von Frey apparatus (Electronic Von Frey, Bioseb, France) was used to assess the pain threshold for mechanical stimuli. The von Frey's fiber was applied to the underside of the right mouse paw with increasing pressure. […] The measurement was performed 3 times for each mouse, with at least 30 seconds between the measurements, then the results obtained were averaged. The entire study was performed 3 times: before OXPT administration to determine the baseline pain threshold; 7 days after administration of OXPT, and before administration of test compounds, to assess developing neuropathy by setting a new pain threshold; 30 minutes after administration of the compounds to determine their influence developed neuropathy.
Compound 6 was administered at doses of 10, 20 and 30 mg/kg.

[3] = system: male Swiss albino mice (CD-1); assay: Maximal electroshock seizure test (MES)
Summary of the method: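 Seizures were induced by auricular electroshock (25 mA, 500 V, 0.2 s) 30 min after a single i.p. dose in 1% aqueous Tween, scoring hind-limb tonic extension. Animals were male Swiss CD-1 mice, 18–26 g; ED50 was estimated from 3–4 dose groups of 6.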

[4] = screening, 100 mg/kg, time point 0.5 h

In the case of O=C(C(c1ccccc1)N1C(=O)CCC1=O)N1CCN(c2cccc(C(F)(F)F)c2)CC1 (racemic) [Compound 6, 1-(2-Oxo-1-phenyl-2-(4-(3-(trifluoromethyl)phenyl)piperazin-1-yl)ethyl)pyrrolidine-2,5-dione], the ED50 ([1]; Mus musculus, ip, 0.5 h, mice) is reported as 59.4 mg/kg, the responders at 100 mg/kg ([1]; Mus musculus, ip, screening, 100 mg/kg i.p., 0.5 h, mice, read-out: scPTZ: number of mice protected/number of mice tested (converted)) is reported as 100% and the “mice protected in the scPTZ test” value [1, 4] is reported as 100%. For the same compound, the “pain threshold, von Frey test” value ([2]; 10 mg/kg i.p.) was 2.87 ± 0.12 g, the “pain threshold as % of the initial value, von Frey test” value (shortened to “pain threshold as %”) ([2]; 10 mg/kg i.p.) was 85.41% and the “pain threshold, von Frey test” value ([2]; 20 mg/kg i.p.) was 3.83 ± 0.13 g. For the same compound, the “pain threshold as %” value ([2]; 20 mg/kg i.p.) was 113.98%, the “pain threshold, von Frey test” value ([2]; 30 mg/kg i.p.) was 4.17 ± 0.17 g and the “pain threshold as %” value ([2]; 30 mg/kg i.p.) was 124.10%. For the same compound, the ED50 ([3]; Mus musculus, ip, 0.5 h, mice) was 23.7 mg/kg and the “mice protected in the MES test” value [3, 4] was 100%.
